The values that follow come from EP0000816A1, “Substituted amino-pyridine derivatives, processes for their preparation and pharmaceutical compositions containing them” (BEECHAM GROUP PLC, priority 1977, dated 1979).

In this test the test system is male albino rats (C.F.Y. strain). Nature of the test: Hypolipidaemic assay: serum total cholesterol and triglyceride in rats given compound in diet. The following applies: 0.1% in diet for seven days; for % Cholesterol Lowering: serum total cholesterol compared with controls; for % Triglyceride Lowering: serum triglyceride compared with controls. Format: in vivo. Here is the method:
Groups of 8 male albino rats (C.F.Y. strain), weighing approximately 150 g., were given a powdered commercially available diet (oxoid) to which compounds were added at level of 0.1%. These diets were fed for seven days. The rats were then killed and their serum total cholesterol and triglyceride were measured by the Technicon Autoanalyser.

The structures appear in SMILES notation.

As to `O=C(O)c1ccc(NCc2ccccc2)nc1`, the “% Cholesterol Lowering” value is 34% and the “% Triglyceride Lowering” value was 30%.
In the case of `O=C(O)c1ccc(NCCCc2ccccc2)nc1`, the “% Cholesterol Lowering” value stood at 16% and the “% Triglyceride Lowering” value was 38%.
